Data set [1] can be described thus: Concentration dependent UV spectrometric study of higher order aggregates. To be noted: 75 μM in saline. It counts as physicochemical. The protocol: Possible OTL78-related hypersensitivity in human was next examined using basophil activation assay. Drug related hypersensitivity is mainly due to immune response caused by cross-linking of immunoglobulin E (IgE) expressed on mast cells and basophils (FIG. 47D) resulting in activation and subsequent degranulation to release vasoactive amines, prostaglandins, and cytokines (29). Since cross-linking of IgE can be due to aggregates, concentration dependent UV spectrometric studies were conducted to determine higher order aggregates of OTL78.

The test system of another data set is 22Rv1 tumor xenografts. Kind of data set: Fluorescence-guided surgery of prostate tumors with OTL78. Type of data set: in vivo, mice. How it is done: Growth of the tumors was measured as previously mentioned. After one month, the animals were mixed and divided into 2 groups (n=5 mice/group). Two hours after administering OTL78 (10 nmol in 100 μL saline per mouse), animals were given 1-5% isoflurane for anesthesia and imaged using AMI image system. After an insertion was made using scalpel through the skin, surgical removal of the tumors was performed either following conventional technique (e.g. visualization under white light or palpation) or with the aid of fluorescence guidance (FGS: debulking of visible tumors under conventional method followed by resection of residual fluorescence tissues under image-guided method). After the surgery, the skin was closed using staples and imaged the mice using AMI image system. After imaging, the residual fluorescent tissues from selected mice of conventional surgery group and tissues samples from the tumor beds of selected mice of FGS group were submit for pathological (IHC) analysis. Response to surgical treatment was monitored for over 30 days by imaging using AMI image system 2 h after injecting OTL78 (10 nmol/mouse) and by measuring the growth of the tumor volume using a caliper. Any animal with tumor volume ≥1000 mm3 were euthanized. Tumor-free survival of the mice was documented as % survival vs. time using GraphPad Prism 6. IHC studies were done as explained bellow in the Safety Studies.

A further data set concerns PSMA-negative PC3 cells. Put plainly: OTL78 binding to PSMA-negative cells, cell bound fluorescence by fluorometer. More on the design: species or system human. To be noted: 30 min at 4° C. How it is done:
For OTL78 binding affinity, 22Rv1 or PC3 cells were seeded into a T75 flask and allowed to form a monolayer over 48 h. After trypsin digestion, cells were transferred into centrifuge tubes (1×10^6 cells/tube) and centrifuged. The medium was replaced with fresh medium containing increasing concentration of OTL78 and incubated for 30 min at 4° C. After rinsing with fresh medium (2×1.0 mL) and saline (1×1.0 mL), cells were lysed with 1% SDS with in saline (1.0 mL) and cell bound fluorescence was analyzed using a fluorometer (Cary Eclipse, Agilent Technologies). The binding affinity (Kd) was calculated using a plot of percent cell bound fluorescence versus concentration using GraphPad Prism 6.

The test system of the next data set is LNCaP cells. Put plainly: Binding and internalization of OTL78 by epifluorescence microscopy. Type of data set: cell-based, human. The following applies: 100 nM, 1 h. The protocol: (§1) Confocal Microscopy: 22Rv1, LNCaP, or PC3 cells (50,000 cells/well in 1 mL) were seeded into poly-D-lysine microwell Petri dishes and allowed cells to form monolayers over 12 h. Spent medium was replaced with fresh medium containing OTL78 (100 nM) and cells were incubated for 1 h at 37° C. or 4° C. After rinsing with fresh medium (2×1.0 mL) and saline (lx 1.0 mL), fluorescence images were acquired using an epi-microscopy.

Another data set concerns PC3 cells. The data set is described as above. It counts as cell-based, human. The following applies: 100 nM, 1 h. The protocol:
as §1

The test system of the next data set is 22Rv1 cells. Described as above. To be noted: 100 nM, 1 h. It counts as cell-based, human. How it is done: as §1

The values below come from patent US11484607B2, “PSMA-targeted NIR dyes and their uses” (On Target Laboratories, LLC, priority 2015, dated 2022).

Regarding `CC1(C)C(/C=C/C2=C(Oc3ccc(C[C@H](NC(=O)[C@H](Cc4ccccc4)NC(=O)CCOCCOCCNC(=O)CC[C@H](NC(=O)N[C@@H](CCC(=O)O)C(=O)O)C(=O)O)C(=O)O)cc3)C(=C/C=C3/N(CCCCS(=O)(=O)O)c4ccc(S(=O)(=O)O)cc4C3(C)C)/CCC2)=[N+](CCCCS(=O)(=O)[O-])c2ccc(S(=O)(=O)O)cc21` [OTL78], the “higher order aggregates (UV spectra), in words” value in data set [1] was “no noticeable higher order aggregates”. Besides, the “time to localize 22Rv1 tumors with high contrast” value in the data set with 22Rv1 tumor xenografts (10 nmol, preoperative images) is no more than 2 h. In addition, the “postoperative residual fluorescence in the tumor bed, FGS cohorts” value in the data set with 22Rv1 tumor xenografts (10 nmol, surgery at 2 h) is “no significant fluorescence”. Moreover, in the data set with 22Rv1 tumor xenografts (monitored for over a month), the “biochemical recurrence (BCR), FGS cohort” value is “no sign of BCR”. In addition, in the data set with 22Rv1 tumor xenografts (over 30 days), the “survival, FGS cohorts” value was “survived during the study”. Further, the “residual tumors in tumor margin/bed tissues, FGS cohorts” value in the data set with 22Rv1 tumor xenografts (pathological analysis) is “no residual tumors”. In addition, the “binding to PSMA-negative PC3 cells” value with PSMA-negative PC3 cells was “did not bind”. Further, in the data set with LNCaP cells, the “labelling of LNCaP cells” value is “able to efficiently label”. Also, the “labelling of PC3 cells” value in the data set on PC3 cells is reported as “not PC3 cells”. Besides, in the data set with 22Rv1 cells, the “labelling of 22Rv1 cells” value is reported as “able to efficiently label”.
